For one data set, the system named is Akt. Kind of data set: Akt phosphorylation in C6 glial cells (Western blot). In kind it is cell-based, Rat. As for the experimental part:
(§1) Materials and Methods. Cell culture. Rat glioma cells (C6; American Type Culture Collection, Manassas, Va.) were propagated in Dulbecco's Modified Eagle Medium (DMEM; Invitrogen, Carlsbad, Calif.) supplemented with 10% charcoal-stripped fetal bovine serum (FBS; Hyclone, Logan, Utah), and maintained at 37° C. in a humidified environment containing 5% CO2.
(§2) Treatment of cultures. C6 glial cells were treated with either vehicle control (DMSO, 0.1%), dihydrotestosterone (DHT) (Steraloids Inc., Newport, R.I.), or 5α-androstan-17β-ol-3-one-3-o-carboxymethyloxime:BSA (DHT-BSA) (Steraloids Inc.) at the concentrations indicated for 30 minutes, to assess the effects of these hormones on ERK and Akt phosphorylation. […] Inhibition of the classical androgen receptor was achieved using the androgen receptor antagonist, Flutamide (3 μM; Sigma-Aldrich, St. Louis, Mo.), which was applied 30 minutes prior to treatment with the hormone. Inhibition of MEK, the signaling protein upstream of ERK was achieved using U0126 (10 μM; Cell Signaling, Beverly, Mass.), also pre-incubated for a period of 30 minutes prior to hormone administration.
(§3) Western blot analysis. Following treatment with hormone and/or inhibitor, C6 glial cells were harvested into lysis buffer containing protease and phosphatase inhibitors as described previously (25). Following homogenization, samples were centrifuged at 99,000×g for 15 min at 4° C., and the resulting supernatants were evaluated for total protein concentrations using the BioRad DC (Biorad Labs, Hercules, Calif.) protein assay kit [based on the method of Lowry; (26)]. Sample lysates were loaded onto a sodium dodecyl sulfate (SDS), 10% polyacrylamide gel (PAGE), subjected to electrophoresis, and subsequently transferred onto a polyvinylidene difluoride membrane (PVDF; 0.22 μm pore size, BioRad). The membrane was blocked for 6 hrs with a 3% BSA in 0.2% Tween-containing TBS (TBS-T) solution prior to application of the primary antibody. The following primary antibodies were used: for the detection of the androgen receptor, anti-AR (C-19) (1:200; Santa Cruz Biotechnology); for the detection of the phosphorylated form of Akt: rabbit anti-phospho-Akt (Ser473; 1:1000; Cell Signaling, Beverly, Mass.), for the detection of total Akt, anti Akt (1:1000; Cell Signaling); for the detection of the phosphorylated form of ERK1/2, rabbit anti phospho-p44/42 Map Kinase (Thr202/Tyr204, 1:1000; Cell Signaling); for the detection of total ERK1 and ERK2, goat anti-ERK1 (C-16, 1:500)/goat anti-ERK2 (C-14, 1:500; Santa Cruz Biotechnology). Antibody binding to the membrane was detected using a secondary antibody (either goat anti-rabbit or rabbit anti-goat) conjugated to horseradish peroxidase (1:20,000; Pierce, Rockford, Ill.) and visualized using enzyme-linked chemiluminescence (ECL, Amersham, Arlington Heights, Ill.) with the aid of the UVP imaging system. Phospho-Akt and phosphoERK blots were re-probed with anti-Akt or anti ERK1/2 antibodies to ensure equal loading across lanes.
(§4) Statistical Analysis. Densitometric analysis of the Western blots was conducted using the LabWorks Image Acquisition and Analysis Software (UVP Inc., Upland, Calif.). Densitometric data from at least three independent studies was subjected to an analysis of variance (ANOVA), followed by a Tukey's post hoc analysis for the assessment of group differences, and presented as a bar graph depicting the average±S.E.M., using the GraphPad Software (San Diego, Calif.).

The subject of the next data set is C6 glial cells. Kind of data set: LDH release / iodoacetic acid (IAA) induced cell death of C6 glial cells. Format: cell-based, Rat. The protocol: Triton-X (Tr-X, 0.9%)-induced lysis of cells served as the positive control for LDH release. Estradiol (E2, 10 μM) treatment of cells served as the positive control for protection against IAA-induced LDH release. Data are representative of two independent studies. The effect shown in FIG. 10, is in sharp contrast to the protective effect of DHT reported previously, and supports further the observation that two, potentially competing, mechanisms regulate the effects of androgens on cell viability. In all studies that used the membrane impermeable androgen, the DHT-BSA preparation was filtered using a 10 kDa nominal cut-off column prior to application of this steroid hormone conjugate, to ensure that the effects of DHT-BSA were not attributed to, or confounded by the presence of free (unconjugated) DHT. Stevis, et al., (Stevis P E, Deecher D C, Suhadolnik L, Mallis L M, Frail D E 1999 Differential effects of estradiol and estradiol-BSA conjugates. Endocrinology 140:5455-8) have described that the commercially available preparation of estradiol-conjugated to BSA (E2-BSA), for example, was contaminated with some free estradiol.
In general terms: Release of lactate dehydrogenase indicates damage to the cell membrane.

In another data set the test system is ERK. Briefly: ERK phosphorylation in C6 glial cells (Western blot). Format: cell-based, Rat. As for the experimental part: as §1, §2, §3, §4
Data set [1] deals with hippocampal neuron damage. Particulars: kainic acid model, reference 33; cited from earlier work.
Data set [2] relates to membrane-associated androgen receptor. Kind of data set: Flow cytometry binding of DHT-BSA-FITC to the cell surface of live C6 glial cells. Also noted: species or system Rat. Conditions: 20-fold molar excess of DHT (1 mM) vs DHT-BSA-FITC 50 μM. (Flow cytometry measures light scatter and fluorescence of single cells or particles in a stream.)
Method: Flow cytometry. Briefly, C6 glial cells (10^6 cells) were pipetted into a 1.5 ml micro-centrifuge tube, centrifuged at 250×g for 5 minutes and washed twice with 1 ml of PBS. […] In parallel, cells were re-suspended in PBS treated with BSA-FITC (50 μM; Sigma Aldrich), serving as the control for the detection of “non-specific binding”. Following this incubation period, the cells were washed twice in PBS and resuspended in 500 μl of PBS. The labeled C6 glial cells were injected into an EPICS XL-MCL flow cytometer (Beckman Coulter) and analyzed with System 2 software (Beckman Coulter).
In order to determine if DHT-BSA binds to a specific site on the cell surface (indicative of a membrane-associated androgen receptor), the binding of the fluorescently-labeled DHT-BSA (DHT-BSA-FITC) in C6 glial cells was evaluated. Non-“fixed” and non-permeabilized C6 glial cells were treated with DHT-BSA-FITC (50 μM) in the presence or absence of 20-fold molar excess of DHT (1 mM). Incubation of the cells with BSA-FITC alone for 30 min at 4° C. provided a measure of non-specific binding.
To determine if DHT-BSA binds to surface (plasma membrane) receptors, C6 glial cells were treated with DHT-BSA-FITC (50 μM) for 30 min. in the presence/absence of a 20-fold molar excess of DHT (1 mM). Samples were washed and analyzed using flow cytometric analysis.

As to “5α-androstan-17β-ol-3-one-3-o-carboxymethyloxime:BSA [DHT-BSA]”, the “Akt phosphorylation (phospho-Akt levels relative to sham control)” value in the data set on Akt (0.01, 0.1 and 1 μM, 30 min) is recorded as “dose-dependent suppression of Akt phosphorylation”. Moreover, the “concentration at which the inhibitory effect on Akt phosphorylation becomes evident” value with Akt (30 min, C6 glial cells) worked out at 0.1 µM. In addition, in the data set on C6 glial cells (increasing concentrations, alone), the “cellular damage as assessed by LDH release into the media” value is listed as “did not result in cellular damage”. Further, the “toxicity associated with IAA (LDH release)” value in the data set on C6 glial cells (with low level insult IAA 10 μM) is reported as “significantly increased the toxicity associated with IAA”. Moreover, in the data set on ERK (0.01, 0.1, 1.0 μM, 30 min, particularly at 100 nM and 1 μM), the “ERK phosphorylation (phospho-ERK levels relative to sham control)” value is “substantial suppression of ERK phosphorylation”. Besides, the “concentration at which the inhibitory effect on ERK phosphorylation becomes evident” value with ERK (30 min, C6 glial cells) was 0.1 µM. Besides, the “effect on DHT-induced ERK phosphorylation” value with ERK (co-applied with DHT 10 nM, 30 min, 0.01, 0.1, 1 μM, dose dependent) is given as “blocked the effect of DHT”.
As to `C[C@]12CCC(=O)C[C@@H]1CC[C@@H]1[C@@H]2CC[C@]2(C)[C@@H](O)CC[C@@H]12` [DHT, dihydrotestosterone], the “Akt phosphorylation (phospho-Akt levels)” value in the data set with Akt is reported as “induced an increase in Akt phosphorylation”. For the same compound, in data set [1], the “amount of hippocampal neuron damage” value was “reduce the amount of hippocampal neuron damage”. The “displacement of DHT-BSA-FITC labeling” value in data set [2] is on record as “displaced”. For the same compound, in the data set on ERK, the “ERK phosphorylation at higher concentrations” value is “did not result in an increase in ERK phosphorylation” and the “increase in the phosphorylation of ERK” value is reported as 2.5 fold.
Consider `C[C@]12CCC(=NOCC(=O)O)C[C@@H]1CC[C@@H]1[C@@H]2CC[C@]2(C)[C@@H](O)CC[C@@H]12` [DHT:CMO, 5α-androstan-17β-ol-3-one-3-o-carboxymethyloxime], for which the “ERK phosphorylation by CMO-modified DHT” value in the data set on ERK (0.01, 0.1, 1 μM, 30 min) is recorded as “did not alter the ability of the androgen to elicit ERK phosphorylation”.
Take `CC(C)C(=O)Nc1ccc([N+](=O)[O-])c(C(F)(F)F)c1` [Flutamide]: the “effect of AR antagonist on DHT-induced Akt phosphorylation” value in the data set with Akt (Flutamide 3 μM) is given as “failed to inhibit”.
For `N#CC(=C(/N)Sc1ccccc1N)/C(C#N)=C(\N)Sc1ccccc1N` [U0126], in the data set on ERK, the “effect of MEK1/2 inhibitor on DHT-induced ERK phosphorylation” value is reported as “blocked”.
Consider Pertussis toxin, for which, in the data set with Akt (50 μM, data not shown), the “effect of Gi/o inhibitor on DHT-BSA-mediated suppression of Akt phosphorylation” value was “failed to prevent”. The “effect of Gi/o inhibitor on DHT-BSA-mediated suppression of ERK phosphorylation” value in the data set with ERK (50 μM, data not shown) is “failed to prevent”.

(Values after patent US20070141581A1, “Membrane androgen receptor as a therapeutic target for the prevention/promotion of cell death” (University of North Texas Health Science Center at Fort …, priority 2005, published 2007).)
